Measurements from patent publication US20080108641A1, “Compounds for treating inflammatory disorders, demyelinating disdorders and cancers” (priority 2006, published 2008).

What was measured:
[1] = test system: Experimental Autoimmune Encephalomyelitis (EAE); experiment: Acute stage Experimental Autoimmune Encephalomyelitis (EAE) model, daily dosing
Description: Accordingly, three randomized cohorts of guinea pigs with EAE induced by the method of Example 2, were treated, respectively, with 6 mg/kg of Symadex™ (full salt hydrate) and 0.35 mg/kg of mitoxantrone. Animals were treated daily, by intraperitoneal injection, for 15 days, starting on day 7 post immunization. Controls were treated with vehicle. We reasoned that 15 consecutive, 6 mg/kg doses of Symadex™ would represent a level of drug exposure that would be commensurate with the “20 mg/kg every 72 hours” regimen in Example 4 and consistent with a mid level exposure between the 20 mg/kg and the 40 mg/kg schedule given weekly, in Example 2. The mitoxantrone dose was selected to reflect a typical high dose given to rats or mice by daily dosing in the prior art, but allometrically scaled to the guinea pig.

[2] = test system: colorectal cancer cell lines (HT29 & HCT116); experiment: Microarray differential gene expression (CodeLink Human Whole Genome Bioarrays); format: cell-based

`CCN(CC)CCNc1ccc2ncn3c4ccc(O)cc4c(=O)c1c23` [Symadex™] was tested, and the “clinical score course (neurological impairment)” value ([1]; daily i.p. for 15 days from day 7 post immunization, Symadex 6 mg/kg, mitoxantrone 0.35 mg/kg) was “initial rise in neurological impairment is arrested”, the “statistical significance of therapeutic effect on clinical score vs control (Mann-Whitney rank-sum)” value ([1]; daily i.p. for 15 days, Symadex 6 mg/kg (p below 0.05), mitoxantrone 0.35 mg/kg) was “reaches statistical significance” and the “pathology scores: perivascular cuffing (P), myelitis (E) and demyelination (D) vs control” value ([1]; necropsy after 15 daily doses, p value<0.05 from control) was “reducing the perivascular cuffing (P), myelitis (E) and demyelination (D)”. For the same molecule, the “number of down-regulated genes significantly represented in both cell types” value ([2]; array of 55,000 gene fragment accessions, cells grown at concentration) was 271, the “MEAN FOLD CHANGE OVER CONTROL” value ([2]; gene ACYP1) was −2.07 and the “MEAN FOLD CHANGE OVER CONTROL” value ([2]; gene ADCYAP1) was −21.74. The “MEAN FOLD CHANGE OVER CONTROL” value ([2]; gene ADH1C) was −12.02, the “MEAN FOLD CHANGE OVER CONTROL” value ([2]; gene AGT) was −22.71 and the “MEAN FOLD CHANGE OVER CONTROL” value ([2]; gene ALG5) was −2.71. The “MEAN FOLD CHANGE OVER CONTROL” value ([2]; gene ANAPC4) was −1.92, the “MEAN FOLD CHANGE OVER CONTROL” value ([2]; gene APOA1) was −13.15 and the “MEAN FOLD CHANGE OVER CONTROL” value ([2]; gene ARL6IP) was −2.29. For the same molecule, the “MEAN FOLD CHANGE OVER CONTROL” value ([2]; gene ASAH2) was −2.21, the “MEAN FOLD CHANGE OVER CONTROL” value ([2]; gene HAT1) was −2.63 and the “MEAN FOLD CHANGE OVER CONTROL” value ([2]; gene HMGB1) was −1.97. The “MEAN FOLD CHANGE OVER CONTROL” value ([2]; gene HMMR) was −2.94, the “MEAN FOLD CHANGE OVER CONTROL” value ([2]; gene HNF4A) was −7.42 and the “MEAN FOLD CHANGE OVER CONTROL” value ([2]; gene HNRPA2B1) was −1.93. For the same molecule, the “MEAN FOLD CHANGE OVER CONTROL” value ([2]; gene HSGT1) was −2.08, the “MEAN FOLD CHANGE OVER CONTROL” value ([2]; gene HSPB2) was −13.76 and the “MEAN FOLD CHANGE OVER CONTROL” value ([2]; gene IBSP) was −58.56. The “MEAN FOLD CHANGE OVER CONTROL” value ([2]; gene IL1RAP) was −11.23, the “MEAN FOLD CHANGE OVER CONTROL” value ([2]; gene IL1RL1) was −28.60 and the “MEAN FOLD CHANGE OVER CONTROL” value ([2]; gene IL7R) was −25.20. The “MEAN FOLD CHANGE OVER CONTROL” value ([2]; gene IL13RA2) was −9.79, the “MEAN FOLD CHANGE OVER CONTROL” value ([2]; gene ITGA2B) was −10.64 and the “MEAN FOLD CHANGE OVER CONTROL” value ([2]; gene ITGA9) was −27.91. The “MEAN FOLD CHANGE OVER CONTROL” value ([2]; gene ITGAE) was −2.12, the “MEAN FOLD CHANGE OVER CONTROL” value ([2]; gene ITGB3BP) was −2.73 and the “MEAN FOLD CHANGE OVER CONTROL” value ([2]; gene ITSN1) was −15.06. For the same molecule, the “MEAN FOLD CHANGE OVER CONTROL” value ([2]; gene KCNJ12) was −15.93, the “MEAN FOLD CHANGE OVER CONTROL” value ([2]; gene KCNJ15) was −6.83 and the “MEAN FOLD CHANGE OVER CONTROL” value ([2]; gene KCNQ2) was −24.13. For the same molecule, the “MEAN FOLD CHANGE OVER CONTROL” value ([2]; gene KIAA0089) was −7.23, the “MEAN FOLD CHANGE OVER CONTROL” value ([2]; gene KIF2C) was −2.52 and the “MEAN FOLD CHANGE OVER CONTROL” value ([2]; gene KIF5A) was −11.04. The “MEAN FOLD CHANGE OVER CONTROL” value ([2]; gene KLRG1) was −24.24, the “MEAN FOLD CHANGE OVER CONTROL” value ([2]; gene KRT13) was −3.34 and the “MEAN FOLD CHANGE OVER CONTROL” value ([2]; gene LCP2) was −11.85. The “MEAN FOLD CHANGE OVER CONTROL” value ([2]; gene LIMS2) was −57.61, the “MEAN FOLD CHANGE OVER CONTROL” value ([2]; gene LNX) was −87.48 and the “MEAN FOLD CHANGE OVER CONTROL” value ([2]; gene LPAAT-E (first entry)) was −11.94. For the same molecule, the “MEAN FOLD CHANGE OVER CONTROL” value ([2]; gene LPAAT-E (second entry)) was −2.40, the “MEAN FOLD CHANGE OVER CONTROL” value ([2]; gene LRP1B) was −15.01 and the “MEAN FOLD CHANGE OVER CONTROL” value ([2]; gene LTB) was −12.57. The “MEAN FOLD CHANGE OVER CONTROL” value ([2]; gene MAD2L1) was −3.14, the “MEAN FOLD CHANGE OVER CONTROL” value ([2]; gene MAP6) was −12.89 and the “MEAN FOLD CHANGE OVER CONTROL” value ([2]; gene MAPK13) was −2.14. The “MEAN FOLD CHANGE OVER CONTROL” value ([2]; gene MAPT) was −26.53, the “MEAN FOLD CHANGE OVER CONTROL” value ([2]; gene MAZ) was −1.89 and the “MEAN FOLD CHANGE OVER CONTROL” value ([2]; gene MCM6) was −1.97. For the same molecule, the “MEAN FOLD CHANGE OVER CONTROL” value ([2]; gene MCM7) was −2.69, the “MEAN FOLD CHANGE OVER CONTROL” value ([2]; gene MEA) was −2.39 and the “MEAN FOLD CHANGE OVER CONTROL” value ([2]; gene MGAT4A) was −10.83. For the same molecule, the “MEAN FOLD CHANGE OVER CONTROL” value ([2]; gene MIS12) was −2.20, the “MEAN FOLD CHANGE OVER CONTROL” value ([2]; gene MPZL1) was −2.04 and the “MEAN FOLD CHANGE OVER CONTROL” value ([2]; gene MRPL1) was −2.02. The “MEAN FOLD CHANGE OVER CONTROL” value ([2]; gene MRPL11) was −2.97, the “MEAN FOLD CHANGE OVER CONTROL” value ([2]; gene MRPL13) was −2.16 and the “MEAN FOLD CHANGE OVER CONTROL” value ([2]; gene MRPL23) was −2.29.
